What all share (assay type): cell-based, human
Assay [1] relates to HCT116 cells. The experiment in a line: Cell-in-cell structures (cellular cannibalism) by confocal microscopy of CMFDA/CMTMR-labelled cocultures. The conditions noted are these: for generation of cell-in-cell structures after supplementation with nucleotide: ATP or UTP supplementation, ROCK-dependent; for generation of cell-in-cell structures after TP53 inactivation in presence of inhibitor: TP53 inactivated by PFT-α, knockdown or knockout, 20 μM Y27632 or 100 μM z-VAD. The method, then: FIG. 1. Identification of TP53 as repressor of cellular cannibalism. (A) Schematic representation of experimental procedure used to evaluate the ability to tumor suppressive depletion to enhance cell in cell internalization. (B) Frequencies of cell-in-cell structures induced by depletion of tumor suppressive proteins in HCT116. After 48 hours of transfection indicated siRNA, colorectal HCT116 cells were stained with CMTMR and CMFDA cell trachers, mixed and cultured during 24 hours. Quantification of cell-in-cell structures induced by depletions of tumor suppressor proteins was realized by confocal microscopy. The frequencies of cell-in-cell structures were determined for at least 300 cells in 3 independent experiments (mean+/−s.e.m, p<0.001). (C) Detection of cell-in-cell structures induced by depletion of TP53, as visualized by confocal microscopy. […] Representative micrographs of xy (scale bar, 5 μm), xz (scale bar, 4 μm) and yz (scale bar, 1 μm) optical sections are shown. Images are representative of at least four independent experiments. (D) Representative micrographs of cell-in-cell structures showing that after depletion of TP53 by two specific siRNAs, (red) CMTR labeled HCT116 cells internalized (red) CMTR labeled HCT116 cells (noted R(R)) or (green) CMFDA labeled HCT116 cells (noted R(G)), and (green) CMFDA labeled HCT116 cells engulfed (red) CMTR labeled HCT116 cells (noted G(R)) or (green) CMFDA labeled HCT116 cells (noted G(G)) (scale, 5 μm). (E) Frequencies of cell-in-cell structures showing R(R), R(G), G(R) or G(G) cell internalization detected after depletion of TP53 by two distinct siRNAs (as compare to control). The frequencies of cell-in-cell structures were determined for at least 300 cells in 3 independent experiments (mean+/−s.e.m, p<0.001). (F) Cell-in-cell structures induced by 10 μM PFT-α, TP53 knockdown, or TP53 knockout in HCT116. Cell-in-cell structures were identified by b-catenin (white), CMFDA (green) and CMTMR (red) staining of internalizing HCT116 cells. Images are representative of at least four independent experiments (scale bar in a, 5 μm and scale bar in b 1 μm). (G) Frequencies of cell-in-cell structures induced by 10 μM PFT-α, TP53 knockdown, or TP53 knockout in HCT116 in presence or in absence of 20 μM of ROCK inhibitor (Y27632) or 100 μM of pan-caspase inhibitor (z-VAD). The frequencies of cell-in-cell structures were determined for at least 300 cells in 3 independent experiments (mean+/−s.e.m, p<0.001). (H) Detection of cell-in-cell structures in TP53 depleted human diploid fibroblasts strain WI38, as visualized by confocal microscopy. […] Representative micrographs of xy (scale bar, 5 μm), xz (scale bar, 4 μm) and yz (scale bar, 1 μm) optical sections are shown. Images are representative of at least four independent experiments. (1) Frequencies of cell-in-cell structures induced by depletion of TP53 in human diploid fibroblasts strain WI38. The frequencies of cell-in-cell structures were determined for at least 300 cells in 3 independent experiments (mean+/−s.e.m, p<0.001).
After inactivation of TP53 or Δ133TP53, primary human fibroblasts, primary human keratinocytes, colorectal carcinoma Tp53^+/+ HCT116 cells and pancreatic PANC813 cells were incubated during 24 hours in presence or in absence of indicated concentrations of the pharmacological inhibitor of purinergic P2Y2 receptor Kaempferol (Sigma), the pharmacological inhibitor of ROCK Y27632 (Sigma) or the pan-caspase inhibitor zVAD-fmk (100 uM, BD Biosciences), ATP, UTP and soluble apyrase used in indicated experiments were obtained from Sigma.
After 48 hours of transfection with specific indicated siRNA, cells were stained with 10 μM of 5-chloromethylfluorescein diacetate (Cell Tracker Green CMFDA, Invitrogen) or with 10 μM of 5-(and-6)-(((4-Chloromethyl)Benzoyl)Amino)Tetramethylrhodamine (CMTMR, Invitrogen) and cocultured for indicated time. […]

The subject of assay [2] is P2Y2 purinergic receptors. The experiment in a line: P2Y2 expression by immunoblot. Particulars: HCT116 treated with 10 μM CDDP. In general terms: Immunoblotting shows a protein as a band on a membrane.
Assay [3] relates to HCT116 cells. The experiment in a line: Release of ATP by ATP-dependent bioluminescence (Enliten ATP assay). Particulars: HCT116 treated with 10 μM CDDP. The method, then:
FIG. 11. Extracellular ATP and purinergic receptor P2Y2 participate in cellular cannibalism. (A.) Detection of cellular cannibalism after cis-platinium (CDDP) or γ-irradiation (IR) treatment. After 24 hours treatment with 10 μM CDDP or irradiation (IR) with 4 grays, half cell population of colon carcinoma HCT116 cells were stained with green CMFDA cell tracker or with red CMTMR cell tracker and analyzed for cellular cannibalism by confocal microscopy after 24 hours of coculture in presence or in absence of 20 μM of ROCK inhibitor (YI27632) or 100 μM of pan-caspase inhibitor (zVAD). The frequencies of cannibal cells were determined for at least 300 cells in 3 independent experiments (mean+/−s.e.m, *p<0.001). (B-D) Detection of ATP release after stimulation with senescent-induced stresses. Release of ATP on HCT116 cells treated with 10 μM CDDP (B) or 4 gray γ-irradiation (IR) (B) Of depleted for p53 (C) or Δ133p53 (C) was determined 2 hours after the beginning of coculture using ATP-dependent bioluminescence in 3 independent experiments, (D) Effect of ROCK inhibitor on ATP release detected after p53 inactivation. Release of ATP was detected as previously described in presence or in absence of 20 μM of Y27632 (mean+/−s.e.m, *p<0.001). […] The frequencies of cell-in-cell structures were determined for at least 300 cells in 3 independent experiments (mean+/−s.e.m, *p<0.001). […]

The next assay concerns caspase-3. The assay can be described thus: Cleavage of caspase-3 by immunoblot. The arrangement: dose or concentration left out as unconfirmed. The conditions noted are these: cisplatin, positive control. On the procedure: FIG. 7. Effects of TP53 inactivation on cellular cannibalism. (A) Detection of cell-in-cell structures induced by depletion of TP53, as visualized by confocal microscopy. […] Images are representative of at least four independent experiments. (B) Detection of cell-in-cell structures induced by depletion of TP53 by light microscopy. (C) Time-lapse imaging of cellular cannibalism detected after depletion of TP53 on HCT116 cells. After 48 hours of transfection with siRNA against TP53, cells were stained as previously described with CMFDA and CMTMR cell trackers and cocultured under time-lapse confocal videomicroscopy. Indicated numbers represent hours and minutes. […] After 48 hours of TP53 knockdown, cleavage of caspase-3 was analyzed by immunoblot. […] Mitotic events and cellular cannibalism were detected and recorded during approximately fifteen hours. […] ROCK activity was determined by detecting the phosphorylation of myosin light chain 2 on serine 19 (MLC2S19*). […] TP53 knocked down, or TP53 knocked out HCT116 cells were analyzed for MLC2S19*, MLC2 or TP53 by immunoblot. […] Tp53^−/+ and Tp53^−/− HCT116 cells are fixed and analyzed by electron microscopy. […] HCT116 cells were transfected with specific siRNAs for TP53 during 48 hours and expression of TP53 (H) or MLCS19* (I) were determined by immunoblots. […]

On to `Nc1ncnc2c1ncn2C1OC(CO[P@SP3](=O)(O)O[P@SP3](=O)(O)O[P@SP3](=O)(O)O)C(O)C1O` (stereo not drawn) [ATP, Adenosine-5′-triphosphate], for which the “generation of cell-in-cell structures after supplementation with nucleotide” value with HCT116 cells [1] (HCT116) is recorded as “strongly enhanced the ROCK-dependent generation of cell-in-cell structures”.

Turning to `O=c1ccn([C@@H]2O[C@H](COP(=O)(O)OP(=O)(O)OP(=O)(O)O)[C@@H](O)[C@H]2O)c(=O)[nH]1` [UTP], in the assay with HCT116 cells [1] (HCT116), the “generation of cell-in-cell structures after supplementation with nucleotide” value is listed as “strongly enhanced the ROCK-dependent generation of cell-in-cell structures”. Take `C[C@@H](N)[C@H]1CC[C@H](C(=O)Nc2ccncc2)CC1` [Y26732]: the “generation of cell-in-cell structures after TP53 inactivation in presence of inhibitor” value in the assay on HCT116 cells [1] is listed as “prevented the generation of cell-in-cell structures”. In the case of `N.N.[Cl][Pt][Cl]` [cisplatin], the “expression of the P2Y2 purinergic receptors” value in assay [2] was “enhanced the expression of the P2Y2 purinergic receptors”. Besides, in the assay with HCT116 cells [3], the “release of ATP” value is “released ATP shortly after treatments”. In addition, the “cleavage of caspase-3” value in the assay with caspase-3 is given as “intense cleavage of caspase-3”. As for `Cc1ccc(C(=O)Cn2c3c(sc2=N)CCCC3)cc1` [pifithrin-α], in the assay with HCT116 cells [1] (HCT116, 10 μM PFT-α, 24 hours coculture), the “cell-in-cell structures induced by pharmacological inactivation of TP53” value is reported as “induced cell-in-cell structures”. In the case of Z-VAD-fmk, in the assay on HCT116 cells [1], the “generation of cell-in-cell structures after TP53 inactivation in presence of inhibitor” value is “not affected”.

With apyrase, the “cellular internalization induced by the depletion of TP53 or Δ133TP53” value in the assay on HCT116 cells [1] (HCT116, different concentrations of apyrase) was “reduced cellular internalization”.
